Test results: ChEMBL document CHEMBL3868595, “Plazomicin is effective in a non-human primate pneumonic plague model” (Bioorg Med Chem, 2016)

How the values were obtained:
[1] = system: Yersinia pestis; test: Antibacterial activity against Yersinia pestis Colorado 92 infected in African green monkey B6960 model assessed as bacterial burden in spleen at 6.25 mg/kg, iv administered within 6 hrs post onset of sustained fever as 30 mins infusion for 5 days (reference value: 1.6 10^9CFU/g); type: functional, CO92
[2] = system: Yersinia pestis; test: Antibacterial activity against Yersinia pestis Colorado 92 infected in African green monkey B6873 model assessed as bacterial burden in tracheobronchial lymph nodes at 12.5 mg/kg, iv administered within 6 hrs post onset of sustained fever as 30 mins infusion for 5 days (reference value: 7.7 10^9CFU/g); type: functional, organism-based; details: CO92, Lymph node
[3] = system: Yersinia pestis; test: Antibacterial activity against Yersinia pestis Colorado 92 infected in African green monkey B6783 model assessed as bacterial burden in liver at 12.5 mg/kg, iv administered within 6 hrs post onset of sustained fever as 30 mins infusion for 5 days (reference value: 5.2 10^8CFU/g); type: functional, CO92
[4] = system: Yersinia pestis; test: Antibacterial activity against Yersinia pestis Colorado 92 infected in African green monkey B6988 model assessed as bacterial burden in liver at 6.25 mg/kg, iv administered within 6 hrs post onset of sustained fever as 30 mins infusion for 5 days (reference value: 5.2 10^8CFU/g); type: functional, CO92
[5] = system: African green monkey; test: Toxicity in African green monkey B5994 model infected with Yersinia pestis Colorado 92 assessed as serum creatinine level at 25 mg/kg, iv administered within 6 hrs post onset of sustained fever as 30 mins infusion for 10 days (reference value: 0.6 mg/dl); type: organism-based; details: chlorocebus sabaeus, in vivo
[6] = system: Yersinia pestis; test: Antibacterial activity against Yersinia pestis Colorado 92 infected in African green monkey B6415 model assessed as bacterial burden in spleen at 25 mg/kg, iv administered within 6 hrs post onset of sustained fever as 30 mins infusion for 5 days (reference value: 1.6 10^9CFU/g); type: functional, CO92
[7] = system: Yersinia pestis; test: Antibacterial activity against Yersinia pestis Colorado 92 infected in African green monkey C2083 model assessed as bacterial burden in tracheobronchial lymph nodes at 12.5 mg/kg, iv administered within 6 hrs post onset of sustained fever as 30 mins infusion for 5 days (reference value: 7.7 10^9CFU/g); type: functional, CO92, Lymph node
[8] = Elimination half life in African green monkey blood at 35 mg/kg administered as iv infusion twice daily for 7 consecutive days measured on day 1 by LC-MS/MS analysis; type: ADME, organism-based; details: chlorocebus aethiops, read-out: beta t1/2 (converted)
[9] = Clearance in African green monkey blood at 25 mg/kg administered as iv infusion twice daily for 7 consecutive days measured on day 7 by LC-MS/MS analysis; type: ADME, organism-based; details: chlorocebus aethiops
[10] = system: Yersinia pestis; test: Antibacterial activity against Yersinia pestis Colorado 92 infected in African green monkey B6127 model assessed as bacterial burden in liver at 25 mg/kg, iv administered within 6 hrs post onset of sustained fever as 30 mins infusion for 10 days (reference value: 5.2 10^8CFU/g); type: functional, CO92
[11] = system: Yersinia pestis; test: Antibacterial activity against Yersinia pestis Colorado 92 infected in African green monkey 8047 model assessed as bacterial burden in heart at 6.25 mg/kg, iv administered within 6 hrs post onset of sustained fever as 30 mins infusion for 10 days (reference value: 2.6 10^7CFU/g); type: functional, CO92
[12] = system: Yersinia pestis; test: Antibacterial activity against Yersinia pestis Colorado 92 infected in African green monkey B6873 model assessed as bacterial burden in lung at 12.5 mg/kg, iv administered within 6 hrs post onset of sustained fever as 30 mins infusion for 5 days (reference value: 7.7 10^8CFU/g); type: functional, CO92
[13] = system: African green monkey; test: Toxicity in African green monkey 7972 model infected with Yersinia pestis Colorado 92 assessed as blood urea nitrogen level at 25 mg/kg, iv administered within 6 hrs post onset of sustained fever as 30 mins infusion for 10 days (reference value: 13 mg/dl); type: organism-based; details: chlorocebus sabaeus, in vivo
[14] = system: African green monkey; test: Toxicity in African green monkey B6140 model infected with Yersinia pestis Colorado 92 assessed as serum lactate dehydrogenase level at 25 mg/kg, iv administered within 6 hrs post onset of sustained fever as 30 mins infusion for 10 days (reference value: 290 IU/L); type: organism-based; details: chlorocebus sabaeus, in vivo
[15] = system: Yersinia pestis; test: Antibacterial activity against Yersinia pestis Colorado 92 infected in African green monkey B6469 model assessed as bacterial burden in tracheobronchial lymph nodes at 25 mg/kg, iv administered within 6 hrs post onset of sustained fever as 30 mins infusion for 5 days (reference value: 7.7 10^9CFU/g); type: functional, organism-based; details: CO92, Lymph node
[16] = system: Yersinia pestis; test: Antibacterial activity against Yersinia pestis Colorado 92 infected in African green monkey B6106 model assessed as bacterial burden in blood at 25 mg/kg, iv administered within 6 hrs post onset of sustained fever as 30 mins infusion for 5 days (reference value: 1.2 10^7CFU/ml); type: functional, CO92
[17] = system: Yersinia pestis; test: Antibacterial activity against Yersinia pestis Colorado 92 infected in African green monkey C2083 model assessed as bacterial burden in spleen at 12.5 mg/kg, iv administered within 6 hrs post onset of sustained fever as 30 mins infusion for 5 days (reference value: 1.6 10^9CFU/g); type: functional, CO92
[18] = system: Yersinia pestis; test: Antibacterial activity against Yersinia pestis Colorado 92 infected in African green monkey B6988 model assessed as bacterial burden in brain at 6.25 mg/kg, iv administered within 6 hrs post onset of sustained fever as 30 mins infusion for 5 days (reference value: 1.9 10^6CFU/g); type: functional, CO92
[19] = system: African green monkey; test: Toxicity in African green monkey 7653 model infected with Yersinia pestis Colorado 92 assessed as serum gamma glutamyl-transferase level at 25 mg/kg, iv administered within 6 hrs post onset of sustained fever as 30 mins infusion for 10 days (reference value: 37 IU/L); type: organism-based; details: chlorocebus sabaeus, in vivo
[20] = Cmax in African green monkey blood at 25 mg/kg administered as iv infusion twice daily for 7 consecutive days measured on day 1 by LC-MS/MS analysis; type: ADME, organism-based; parameters: dose 25 mg/kg, route intravenous; details: chlorocebus aethiops
[21] = system: Yersinia pestis; test: Antibacterial activity against Yersinia pestis Colorado 92 infected in African green monkey B6861 model assessed as bacterial burden in liver at 6.25 mg/kg, iv administered within 6 hrs post onset of sustained fever as 30 mins infusion for 5 days (reference value: 5.2 10^8CFU/g); type: functional, CO92
[22] = system: Yersinia pestis; test: Antibacterial activity against Yersinia pestis Colorado 92 infected in African green monkey B6889 model assessed as bacterial burden in brain at 6.25 mg/kg, iv administered within 6 hrs post onset of sustained fever as 30 mins infusion for 5 days (reference value: 1.9 10^6CFU/g); type: functional, CO92
[23] = system: African green monkey; test: Toxicity in African green monkey 7929 model infected with Yersinia pestis Colorado 92 assessed as serum creatinine level at 25 mg/kg, iv administered within 6 hrs post onset of sustained fever as 30 mins infusion for 10 days (reference value: 1 mg/dl); type: organism-based; details: chlorocebus sabaeus, in vivo
[24] = system: Yersinia pestis; test: Antibacterial activity against Yersinia pestis Colorado 92 infected in African green monkey B6872 model assessed as bacterial burden in brain at 25 mg/kg, iv administered within 6 hrs post onset of sustained fever as 30 mins infusion for 5 days (reference value: 1.9 10^6CFU/g); type: functional, CO92
[25] = system: Yersinia pestis; test: Antibacterial activity against Yersinia pestis Colorado 92 infected in African green monkey B6436 model assessed as bacterial burden in kidney at 25 mg/kg, iv administered within 6 hrs post onset of sustained fever as 30 mins infusion for 5 days (reference value: 7.1 10^7CFU/g); type: functional, organism-based; details: CO92

SMILES: CN[C@@H]1[C@@H](O)[C@@H](O[C@@H]2[C@@H](O)[C@H](O[C@H]3OC(CNCCO)=CC[C@H]3N)[C@@H](N)C[C@H]2NC(=O)[C@@H](O)CCN)OC[C@]1(C)O [PLAZOMICIN]
- Activity [1]: 23 CFU/g
- Activity [2]: Below limit of detection
- Activity [3]: 8.4 ×10⁶ CFU/g
- Activity [4]: 17 CFU/g
- Activity [5]: 0.5 mg/dL
- Activity [6]: 90 CFU/g
- Activity [7]: 8 ×10⁹ CFU/g
- half-life [8]: 1.7 h
- clearance [9]: 1.83 mL/min/kg
- Activity [10]: 44 CFU/g
- Activity [11]: 2 ×10⁷ CFU/g
- Activity [12]: 16 CFU/g
- Activity [13]: 24 mg/dL
- Activity [14]: 379 IU/L
- Activity [15]: Below limit of detection
- Activity [16]: 40 CFU/ml
- Activity [17]: 1.5 ×10⁷ CFU/g
- Activity [18]: 11 CFU/g
- Activity [19]: 27 IU/L
- Cmax [20]: 96 µg/mL
- Activity [21]: 16 CFU/g
- Activity [22]: 80 CFU/g
- Activity [23]: 0.9 mg/dL
- Activity [24]: 4.1 ×10⁶ CFU/g
- Activity [25]: Below limit of detection
